Experimental data from patent US20230183193A1, “4-DIFLUOROMETHYL BENZOYL AMIDES WITH HERBICIDAL ACTION” (BAYER CROPSCIENCE AKTIENGESELLSCHAFT, priority 2017, published 2023).

Key:
Type in all cases: in vivo
Setaria viridis [1] = test: Pre-emergence herbicidal action, SETVI; settings: dosage 320 g/ha, scored visually after 3 weeks vs untreated controls
Description: (§1) 1. Pre-Emergence Herbicidal Action Against Harmful Plants Seeds of monocotyledonous and dicotyledonous weed plants and crop plants are laid out in sandy loam soil in wood-fiber pots and covered with soil. The compounds of the invention, formulated in the form of wettable powders (WP) or as emulsion concentrates (EC), are then applied to the surface of the covering soil in the form of an aqueous suspension or emulsion at a water application rate equating to […], with addition of 0.2% wetting agent. After the treatment, the pots are placed in a greenhouse and kept under good growth conditions for the trial plants. The damage to the test plants is scored visually after a test period of 3 weeks by comparison with untreated controls (herbicidal activity in percent (%): 100% activity=the plants have died, 0% activity=like control plants).
(§2) For comparison, the herbicidal activity of numerous compounds according to the invention was tested with the structurally closest compounds known from the documents WO 2011/035874, WO 2012/028579 and WO 2012/126932, by the pre- and post-emergence method.

Viola tricolor [2] = test: Pre-emergence herbicidal action, VIOTR; settings: dosage 320 g/ha, scored visually after 3 weeks vs untreated controls
Description: as §1, §2

Pharbitis purpureum = test: Post-emergence herbicidal action, PHBPU; settings: 80 g/ha, Table D
Experimental: (§3) Seeds of monocotyledonous and dicotyledonous weed and crop plants are laid out in sandy loam soil in wood-fiber pots, covered with soil and cultivated in a greenhouse under good growth conditions. 2 to 3 weeks after sowing, the test plants are treated at the one-leaf stage. The compounds of the invention, formulated in the form of wettable powders (WP) or as emulsion concentrates (EC), are then sprayed onto the green parts of the plants in the form of an aqueous suspension or emulsion at a water application rate equating to […], with addition of 0.2% wetting agent. After the test plants have been left to stand in the greenhouse under optimal growth conditions for about 3 weeks, the action of the preparations is assessed visually in comparison to untreated controls (herbicidal action in percent (%): 100% activity=the plants have died, 0% activity=like control plants). […] At the same time, inventive compounds leave Gramineae crops such as barley, wheat, rye, millet/sorghum, corn or rice virtually undamaged when applied post-emergence, even at high active compound dosages. In addition, some substances are also harmless to dicotyledonous crops such as soya, cotton, oilseed rape, sugar beet or potatoes. Some of the compounds according to the invention have high selectivity and are therefore suitable for controlling unwanted vegetation in agricultural crops by the post-emergence method. The data of Tables C and D below illustrate, in an exemplary manner, the […] herbicidal action of the compounds according to the invention, the herbicidal activity being stated in percent.
as §2

Amaranthus retroflexus [3] = test: Post-emergence herbicidal action, AMARE; settings: 80 g/ha, Table D
Experimental: as §3, §2

Stellaria media [4] = test: Pre-emergence herbicidal action, STEME; settings: dosage 320 g/ha, scored visually after 3 weeks vs untreated controls
Description: as §1, §2

Matricaria inodora = test: Pre-emergence herbicidal action, MATIN; settings: dosage 320 g/ha, scored visually after 3 weeks vs untreated controls
Description: as §1, §2

Stellaria media [5] = test: Post-emergence herbicidal action, STEME; settings: 80 g/ha, Table D
Experimental: as §3, §2

Amaranthus retroflexus [6] = test: Pre-emergence herbicidal action, AMARE; settings: dosage 320 g/ha, scored visually after 3 weeks vs untreated controls
Description: as §1, §2

Abutilon theophrasti [7] = test: Pre-emergence herbicidal action, ABUTH; settings: dosage 320 g/ha, scored visually after 3 weeks vs untreated controls
Description: as §1, §2

Viola tricolor [8] = test: Post-emergence herbicidal action, VIOTR; settings: 80 g/ha, Table D
Experimental: as §3, §2

Abutilon theophrasti [9] = test: Post-emergence herbicidal action, ABUTH; settings: 80 g/ha, Table D
Experimental: as §3, §2

Cyperus serotinus = test: Pre-emergence herbicidal action, CYPES; settings: dosage 320 g/ha, scored visually after 3 weeks vs untreated controls
Description: as §1, §2

Alopecurus myosuroides = test: Pre-emergence herbicidal action, ALOMY; settings: dosage 320 g/ha, scored visually after 3 weeks vs untreated controls
Description: as §1, §2

Setaria viridis [10] = test: Post-emergence herbicidal action, SETVI; settings: 80 g/ha, Table C
Experimental: as §3, §2

ECHCG = test: Post-emergence herbicidal action, ECHCG; settings: 80 g/ha, Table C
Experimental: as §3

Avena fatua = test: Pre-emergence herbicidal action, AVEFA; settings: dosage 320 g/ha, scored visually after 3 weeks vs untreated controls
Description: as §1, §2

SMILES | herbicidal activity SETVI (Setaria viridis [1]) [%] | herbicidal activity VIOTR (Viola tricolor [2]) [%] | Herbicidal activity PHBPU (Pharbitis purpureum) [%] | herbicidal activity AMARE (Amaranthus retroflexus [3]) [%] | Herbicidal activity STEME (Stellaria media [4]) [%] | herbicidal activity MATIN (Matricaria inodora) [%] | Herbicidal activity STEME (Stellaria media [5]) [%] | herbicidal activity AMARE (Amaranthus retroflexus [6]) [%] | herbicidal activity ABUTH (Abutilon theophrasti [7]) [%] | herbicidal activity VIOTR (Viola tricolor [8]) [%] | herbicidal activity ABUTH (Abutilon theophrasti [9]) [%] | herbicidal activity CYPES (Cyperus serotinus) [%] | herbicidal activity ALOMY (Alopecurus myosuroides) [%] | herbicidal activity SETVI (Setaria viridis [10]) [%] | Herbicidal activity ECHCG (ECHCG) [%] | herbicidal activity AVEFA (Avena fatua) [%]
Cn1nnnc1NC(=O)c1ccc(C(F)F)c(S(C)(=O)=O)c1I [Example 1-75] | 100 | 90 | 80 | 90 | 100 | 90 | 100 | 90 | 90 | – | – | – | – | – | – | –
CSc1c(C(F)F)ccc(C(=O)Nc2ncnn2C)c1C1CC1 [Example 4-25] | – | 100 | 80 | 90 | 90 | 90 | 100 | 90 | 90 | 90 | – | – | – | – | – | –
CCSc1c(C(F)F)ccc(C(=O)Nc2ncnn2C)c1C1CC1 [Example 4-28] | – | 100 | 90 | 80 | 90 | 90 | 100 | 90 | 100 | 80 | – | – | – | – | – | –
CC[S+]([O-])c1c(C(F)F)ccc(C(=O)Nc2ncnn2C)c1C1CC1 (stereo not shown) [Example 4-29] | – | 100 | 90 | 80 | 90 | 90 | 90 | 90 | 100 | 90 | 80 | – | – | – | – | –
CCS(=O)(=O)c1c(C(F)F)ccc(C(=O)Nc2ncnn2C)c1C1CC1 [Example 4-30] | – | 90 | 90 | – | 90 | 100 | 90 | 90 | 100 | 80 | 80 | 80 | – | – | – | –
Cn1ncnc1NC(=O)c1ccc(C(F)F)c(S(C)(=O)=O)c1F [Example 4-39] | 100 | 100 | 90 | 90 | 100 | 90 | 100 | 100 | 100 | 90 | 90 | – | – | – | – | –
Cn1ncnc1NC(=O)c1ccc(C(F)F)c(S(C)(=O)=O)c1I [Example 4-75] | 90 | 90 | 80 | 100 | 100 | 100 | 90 | 100 | 100 | 80 | – | 80 | – | – | – | –
CC[S+]([O-])c1c(C(F)F)ccc(C(=O)Nc2nonc2Cl)c1C (stereo not shown) [Example 6-5] | 100 | 100 | – | – | 90 | 90 | 90 | 100 | 100 | 100 | 80 | – | 90 | 90 | 100 | 90
